Data as given in the METLIN SMRT retention time set (Domingo-Almenara et al. 2019).

Experiment: gradient 5% acetonitrile 3 min, to 50% in 2 min, to 85% in 15 min, held 3 min, 100 µL/min
Details: column: Zorbax Extend-C18 2.1 x 50 mm; eluents: water / acetonitrile, 0.1% formic acid
Procedure, shortened: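 The mobile phases were water and acetonitrile, each with 0.1% formic acid, pumped at 100 μL/min through a Zorbax Extend-C18 column (2.1 × 50 mm, 1.8 μm). Pure standards were injected as mixtures of ~100 molecules and detected by a quadrupole time-of-flight mass spectrometer in positive and negative ionization mode. Retention time came from computationally picked adduct peaks, each inspected by hand.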

RP-LC retention time | SMILES
646 s | O=C(NCCn1ncccc1=O)c1cccc(C(F)(F)F)c1
885 s | Cc1ccc(C(=O)N2CCN(c3ccc(=O)n(-c4ccc(Cl)cc4)n3)CC2)s1
680 s | CC(C)N1CCn2c(nc3cc(C(=O)NCc4ccc5c(c4)OCO5)ccc32)C1=O
1390 s | CCOc1nc2ccccc2nc1N1CCCC(C(=O)Nc2ccc(Br)cc2F)C1 (stereo not drawn)
980 s | CCN1C(=O)COc2ccc(-c3csc(NC(=O)c4ccccc4Br)n3)cc21
588 s | O=C(O)C1CCN(c2nc3ccc(-c4ccncc4)nc3s2)CC1
959 s | COc1ccc(-c2noc(C3CCCN3C(=O)c3ccc(Cl)cc3)n2)cc1OC (stereo not drawn)
711 s | Cc1csc(COc2ccc(C(=O)Nc3ccc4cn[nH]c4c3)cc2)n1
647 s | O=C(Cc1csc(-c2ccccc2)n1)NCc1nc2ccccc2[nH]1
1110 s | Cc1ccc(-c2noc(C3CC(=O)N(c4ccc(C)c(F)c4)C3)n2)cc1 (stereo not drawn)
650 s | CCC(=O)N(C)CCc1noc(-c2ccc(C(=O)NCCCOC)cc2)n1
638 s | Cc1ccc(CN2CCC(CNC(=O)Cn3c(=O)c(C)nc4cc(C)c(C)cc43)C2)cc1 (stereo not drawn)
573 s | Cc1ccc(Cl)cc1NC(=O)N1CCC(c2nc3ccncc3n2C(C)C)C1 (stereo not drawn)
910 s | Cc1csc(-c2ccc(N3CCN(C(=O)c4cc(F)ccc4Cl)CC3)nc2)n1
925 s | COc1ccc(Cn2nnc(C(=O)NCc3ccco3)c2-n2cccc2)cc1
703 s | CC(NC(=O)c1cc(-c2ccccc2)cn1C)c1ccccn1 (stereo not drawn)
946 s | Cc1cccc(NS(=O)(=O)c2cn(C(C)C)c3ncccc23)c1C
760 s | O=C(Cc1nnc(-c2ccc3ncccc3c2)o1)Nc1ccc(Cl)cc1
730 s | O=C(Cn1nc2c3cc(Cl)ccc3ncn2c1=O)Nc1cccc(Cl)c1
718 s | Cc1cc(C(=O)NC(C)C)c2cc(Cl)ccc2n1
827 s | CCOC(=O)Cn1c(-c2nnc(C)o2)cc2ccccc21

RP-LC retention time | SMILES
860 s | COc1cc(C(=O)Nc2nc(-c3ccc4c(c3)NC(=O)CO4)c(C)s2)cc(OC)c1OC
986 s | COc1cc(OC)c(/C=C2/C(=O)Nc3ccccc32)c(OC)c1
842 s | Cc1ccc(-c2cc3c4nn(CC(=O)N5CCCC5)c(=O)n4ccn3n2)cc1C
1010 s | CC(C)C(=O)c1c(C(C)C)nn2ccccc12
712 s | COc1ccc(OCc2noc(CNC(=O)CCC(=O)c3ccccc3)n2)cc1
824 s | O=C(c1ccc(Cl)cc1)N1CCC2(CC1)N=C(c1ccccc1)NO2
815 s | COc1ccc(C2C(C(=O)Nc3cc(OC)c(OC)c(OC)c3)c3ccccc3C(=O)N2C)cc1 (stereo not drawn)
1170 s | Cc1ccc(C)c(Cn2nc(-c3nc(C(C)(C)C)no3)ccc2=O)c1
733 s | CC1=C(c2ccc(Cl)cc2)S(=O)(=O)N=C1N1CCC(NC(=O)C2CCOC2)CC1 (stereo not drawn)
664 s | CCC(C)Cn1c(CNC(=O)c2ccco2)nc2ccccc21 (stereo not drawn)
851 s | CCCN1C(=O)c2c(C(=O)NCc3cccc(C)c3)ncn2CC1(C)C(=O)NC1CCCC1 (stereo not drawn)
655 s | COc1ccc(N2CCN(c3cc(C(=O)O)c4cc(NC(=O)CC(C)C)ccc4n3)CC2)cc1
620 s | CCC(=O)NCc1nc2c(n1CC)CN(C(=O)c1cc(C)cc(C)c1)CC2
658 s | CCCC(NC(=O)c1ccc(OC)cc1)C(=O)Nc1nc2ccccc2[nH]1 (stereo not drawn)
1210 s | O=C(Nc1ccc(Cl)cc1)c1cc2c(cc1O)[nH]c1ccccc12
917 s | Cc1nc(N2CCOCC2)c2c(C(=O)N3CCN(c4cccc(Cl)c4)CC3)c(C)oc2n1
665 s | CCCN1CCn2cc(C(=O)NCc3ccc(C(C)C)cc3)nc2C1
861 s | C=CCNC(=O)NC1CCN(C2=NS(=O)(=O)C(c3cccc(Cl)c3)=C2C)CC1
610 s | Cc1ccc(NC(=O)N2CCCC2c2nc(-c3ccccc3C)no2)c(Cl)c1 (stereo not drawn)
696 s | Cc1cc(NC(=O)C2CCN(C(=O)COc3ccccc3F)CC2)no1
932 s | COc1cccc(CNC(=O)C2(C)CCCN(S(=O)(=O)c3ccc(Cl)cc3)C2)c1 (stereo not drawn)

Second part, the molecule before the results:

SMILES | RP-LC retention time
Cc1ccc(-n2ncc3c(=O)n(Cc4nc(-c5ccc(F)c(Br)c5)no4)cnc32)cc1 | 1220 s
COc1ccc(N2CCN(c3nc(C(=O)N4CCCC4)cs3)CC2)cc1 | 853 s
COc1cccc(-c2nc(C3CCN(S(=O)(=O)c4ccc(F)cc4)CC3)no2)c1 | 1100 s
O=C(CSCc1ccccc1)NCCS(=O)(=O)N1CCN(c2ncccn2)CC1 | 746 s
O=C(Nc1ccccc1F)N1CC(F)(F)C[C@H]1CN1CCCC1 | 620 s
Cc1cccc(N2CCN(S(=O)(=O)c3cc(-c4cc(C(F)(F)F)[nH]n4)sc3C)CC2)c1C | 1290 s
CN(C)C(=O)CN1C(=O)CCSc2ccccc21 | 665 s
c1ccc(-c2csc(NCc3ccco3)n2)cc1 | 912 s
O=C(Cn1nc2c3sc(N4CCCCC4)nc3ncn2c1=O)Nc1cc(F)cc(F)c1 | 828 s
COc1cccc(N2CCN(C(=O)c3cn(-c4ccc(NC(=O)C5CC5)cn4)cn3)CC2)c1 | 743 s
CC(C)OCCCNC(=O)CC1=C2CCCCC2NC1=O (stereo not drawn) | 628 s
CC(=O)Nc1ccc(C)cc1S(=O)(=O)N1CCc2c(c(-c3nnc(-c4ccccc4)o3)nn2C)C1 | 815 s
Cc1ccc(-c2noc(Cc3nnc(-c4ccc(C)c(C)c4)o3)n2)cc1C | 1230 s
CC(C)NP(=O)(NC(C)C)OP(=O)(NC(C)C)NC(C)C | 762 s
Cc1ncnc2c1CCC(=O)N2Cc1cccnc1 | 539 s
Cc1cc(N2CCN(S(=O)(=O)c3cccc(C(F)(F)F)c3)CC2)nc(NC2CCCCC2)n1 | 890 s
CCc1cccc(C)c1NC(=O)Cn1cnc2nc(N3CCC(C(=O)NC4CC4)CC3)sc2c1=O | 686 s
O=C(c1cc(C2CC2)[nH]n1)N1CCn2c(nnc2-c2ccccc2)C1 | 640 s
COc1cc(CNCCSc2nnnn2C)cc(Br)c1OCc1ccccc1 | 744 s
COCCNC(=O)c1cn(C)c2ncccc12 | 582 s
CCOc1ccc(C(=O)N2CCC3(C2)C(=O)N(C)c2ccccc23)cc1 (stereo not drawn) | 802 s
CCCNC(=O)C1CCN(c2ccc(SCC(=O)Nc3cccc(C(F)(F)F)c3)nn2)CC1 | 723 s
CCOc1ccccc1NS(=O)(=O)c1ccccc1-c1nc(-c2ccc(F)cc2)no1 | 1150 s

SMILES | RP-LC retention time
CCOC(=O)CCNC(=O)N1CCN(Cc2nc3cccnc3n2-c2ccc(F)cc2)CC1 | 607 s
O=C1CSC(c2ccccc2Cl)c2cc(Cl)ccc2N1 (stereo not drawn) | 987 s
CCOCCCNC(=O)C1Cn2cccc2C(=O)N1C (stereo not drawn) | 597 s
Cc1nn(-c2ccccc2)c2c1N(CC(=O)NCCC1=CCCCC1)C(=O)CS2 | 811 s
Fc1ccccc1-c1nc2ccccc2[nH]1 | 592 s
O=C(CN1CCC2(CC1)N=C(c1ccccc1)C(=O)N2)Nc1ccc(Br)cc1F | 685 s
COC(=O)c1c(C)[nH]c(C(=O)N2CCC(CC(=O)N3CCN(c4ccccn4)CC3)CC2)c1C | 606 s
CC(C)CC(=O)N1CC(F)(F)C[C@H]1c1nnc(-c2cnccn2)o1 | 703 s
CC(=C/c1ccccc1)/C=C1/NC(=S)NC1=O | 880 s
Cc1noc(C)c1Cc1ccc(C(=O)N2CCC(N3C[C@H](O)C[C@H]3C(=O)NC3CCCCC3)CC2)o1 | 656 s
CCCn1c(=O)sc2cc(S(=O)(=O)N3CCC(C(=O)N(C)C4CCCCC4)CC3)ccc21 | 1020 s
O=C1COc2cc(S(=O)(=O)N3CCC(C(=O)NCC4CCCO4)CC3)c(Cl)cc2N1 (stereo not drawn) | 653 s
Cc1nc2nc(-c3ccc(C(C)(C)C)cc3)nn2c(C)c1CC(=O)N1CCc2ccccc2C1 | 1120 s
O=C(Cn1nc2c3cc(-c4ccccc4)nn3ccn2c1=O)Nc1ccc(Br)cc1F | 923 s
CN1Cc2ccccc2-n2ccnc2C12CCN(C(=O)c1ccc(Br)o1)CC2 | 615 s
COc1ccc(NC(=O)N2C[C@@H](F)C[C@H]2C(=O)N2CCc3ccccc3C2)cc1OC | 732 s
Cc1ccc(NC(=O)CN2C(=O)CCCc3cc(S(=O)(=O)N4CCCC4)ccc32)c(C)c1 | 852 s
Cc1[nH]c(C)c(S(=O)(=O)N2CCC(C(=O)Nc3cccc(F)c3)CC2)c1C(=O)N1CCCC1 | 720 s
Cc1cccc(NC(=O)C2CCN(S(=O)(=O)c3cc(C(=O)N4CCOCC4)cs3)CC2)n1 | 648 s
O=C(c1ccc(Oc2ccccc2)cc1)N1CC(c2nc3ccccc3[nH]2)C1 | 623 s
CCN1CCCC1CNC(=O)C1CCN(S(=O)(=O)c2ccc3c(c2)sc(=O)n3C)CC1 (stereo not drawn) | 794 s
COCC(C)(O)CNC(=O)C(=O)Nc1ccccc1C#N (stereo not drawn) | 629 s
Cc1ccc(N2CC(c3nc(-c4ccc5c(c4)ncn5C)no3)CC2=O)cc1 (stereo not drawn) | 664 s
